Test results published in ChEMBL document CHEMBL1862790, “Optimisation of fenarimol series for the treatment of Chagas disease”.

Experiments:
[1] = DNDI: Cytotoxicity against L-6 rat myoblasts from skeletal muscle cells; conditions: L6 rat skeletal muscle myoblast cells, IC50
Trypanosoma cruzi [2] = test: microbe, parasite or virus in culture; assay type: functional, Tulahuen LacZ, Clone C4; conditions: Trypanosoma cruzi, Tulahuen LacZ, Clone C4
Trypanosoma cruzi [3] = test: microbe, parasite or virus in culture; assay type: functional, organism-based, Tulahuen LacZ, Clone C4; conditions: Trypanosoma cruzi, Tulahuen LacZ, Clone C4

SMILES	IC50 [1] [nM]	IC90 (Trypanosoma cruzi [2]) [nM]	IC50 (Trypanosoma cruzi [3]) [nM]
Cc1cc(C(=O)NC2CCN(C(c3ccc(C#N)cc3)c3cccnc3)CC2)no1 (centres undefined)	> 100000	103	50
Cc1cc(C(=O)N2CCC(NC(c3ccc(C(F)(F)F)cc3)c3cccnc3)CC2)n(C)n1 (centres undefined)	> 100000	773	264
CC(C)(C)NC(=O)N1CCC(NC(c2ccc(C#N)cc2)c2cccnc2)CC1 (centres undefined)	> 100000	996	585
N#Cc1ccc(C(c2cccnc2)N2CCC(NC(=O)c3cscn3)CC2)cc1 (centres undefined)	> 100000	298	174
Cc1ncsc1C(=O)NC1CCN(C(c2ccc(C#N)cc2)c2cccnc2)CC1 (centres undefined)	> 100000	202	71
O=C(c1cscn1)N1CCC(NC(c2cccnc2)c2ccc(Cl)cc2F)CC1 (centres undefined)	> 100000	832	241
O=C(C1CCC1)N1CCN(C(c2cncnc2)c2ccc(Cl)cc2F)CC1 (centres undefined)	> 100000	868	412
O=C(NC1CC1)N1CCN(C(c2ccc(C(F)(F)F)cc2)c2cncnc2)CC1 (centres undefined)	> 100000	> 1000	> 1000
FC(F)(F)c1ccc(C(NC2CCN(c3ncccn3)CC2)c2cccnc2)cc1 (centres undefined)	55100	92.5	10.5
CC(C)(C)C(=O)N1CCN(C(c2cncnc2)c2ccc(Cl)cc2F)CC1 (centres undefined)	> 100000	302	80.5
O=C(C1CC1)N1CCC(NC(c2cccnc2)c2ccc(Cl)cc2F)CC1 (centres undefined)	> 100000	584	126
O=C(NC1CC1)N1CCN(C(c2cncnc2)c2ccc(C(F)(F)F)cc2F)CC1 (centres undefined)	> 100000	792	490
Fc1cc(Cl)ccc1C(NC1CCN(c2ccccc2F)CC1)c1cccnc1 (centres undefined)	53200	10	4.5
N#Cc1ccc(C(NC2CCN(C(=O)c3ccccc3)CC2)c2cccnc2)cc1 (centres undefined)	> 100000	948	433
N#Cc1ccc(C(c2cccnc2)N2CCC(NC(=O)c3ccc(F)cc3F)CC2)cc1 (centres undefined)	> 100000	40	10
N#Cc1ccc(C(c2cccnc2)N2CCC(NC(=O)c3cccc(F)c3)CC2)cc1 (centres undefined)	> 100000	368	39
Cc1nc(C(=O)NC2CCN(C(c3ccc(C#N)cc3)c3cccnc3)CC2)cs1 (centres undefined)	> 100000	156	65
Cc1cc(C(=O)NC2CCN(C(c3ccc(C#N)cc3)c3cccnc3)CC2)on1 (centres undefined)	> 100000	688	196
NC(=O)c1cccc(C(O)(c2cccnc2)c2ccc(Cl)cc2F)c1 (centres undefined)	> 100000	356	24.5
Cc1ncoc1C(=O)NC1CCN(C(c2ccc(C#N)cc2)c2cccnc2)CC1 (centres undefined)	> 100000	320	183
N#Cc1ccc(C(c2cccnc2)N2CCN(C(=O)C3CC3)CC2)cc1 (centres undefined)	> 100000	556	281
N#Cc1ccc(C(c2cccnc2)N2CCC(NC(=O)c3cccc(C(F)(F)F)c3)CC2)cc1 (centres undefined)	> 100000	75.5	23
CS(=O)(=O)N1CCN(C(c2ccc(C#N)cc2)c2cccnc2)CC1 (centres undefined)	> 100000	734	365

SMILES	IC50 [1] [nM]	IC90 (Trypanosoma cruzi [2]) [nM]	IC50 (Trypanosoma cruzi [3]) [nM]
O=C(c1cccc(C(O)(c2ccc(Cl)cc2)c2cccnc2)c1)N1CCC(O)CC1 (centres undefined)	> 100000	732	118
Cc1nc(C(=O)NC2CCN(C(c3ccc(C#N)cc3)c3cccnc3)CC2)co1 (centres undefined)	> 100000	272	114
Cc1nc(C(=O)N2CCC(NC(c3ccc(C(F)(F)F)cc3)c3cccnc3)CC2)co1 (centres undefined)	> 100000	968	590
O=C(c1ccccc1)N1CCC(NC(c2cccnc2)c2ccc(Cl)cc2F)CC1 (centres undefined)	70800	248	58
N#Cc1ccc(C(c2cccnc2)N2CCC(NC(=O)c3ccccc3F)CC2)cc1 (centres undefined)	> 100000	402	23.5
Cc1noc(N2CCN(C(c3ccc(C#N)cc3)c3cccnc3)CC2)n1 (centres undefined)	> 100000	127	64
CS(=O)(=O)N1CCN(C(c2cncnc2)c2ccc(C(F)(F)F)cc2F)CC1 (centres undefined)	> 100000	72.5	24.5
CS(=O)(=O)N1CCC(NC(c2cccnc2)c2ccc(Cl)cc2F)CC1 (centres undefined)	> 100000	540	134
Cc1nc(N2CCC(NC(c3cccnc3)c3ccc(Cl)cc3F)CC2)no1 (centres undefined)	> 100000	140	64
N#Cc1ccc(C(c2cccnc2)N2CCC(NC(=O)c3ccc(F)cc3)CC2)cc1 (centres undefined)	> 100000	122	18.5
Cc1nc(C)c(C(=O)NC2CCN(C(c3ccc(C#N)cc3)c3cccnc3)CC2)s1 (centres undefined)	> 100000	118	59
N#Cc1ccc(C(c2cccnc2)N2CCC(NC(=O)c3nccs3)CC2)cc1 (centres undefined)	> 100000	358	138
Cc1cc(C(=O)NC2CCN(C(c3ccc(C#N)cc3)c3cccnc3)CC2)[nH]n1 (centres undefined)	> 100000	670	236
N#Cc1ccc(C(c2cccnc2)N2CCC(NC(=O)c3ccc(F)cc3C(F)(F)F)CC2)cc1 (centres undefined)	78500	29.6	6.87
Fc1cc(Cl)ccc1C(NC1CCN(c2nccs2)CC1)c1cccnc1 (centres undefined)	56200	65.5	9
Cc1oncc1C(=O)N1CCC(NC(c2ccc(C(F)(F)F)cc2)c2cccnc2)CC1 (centres undefined)	> 100000	470	69.5
O=C(C1CC1)N1CCN(C(c2ccc(C(F)(F)F)cc2)c2cncnc2)CC1 (centres undefined)	> 100000	652	332
N#Cc1ccc(C(c2cccnc2)N2CCN(C(=O)NC3CC3)CC2)cc1 (centres undefined)	> 100000	> 1000	> 1000
N#Cc1ccc(C(c2cccnc2)N2CCC(NC(=O)c3cc(F)ccc3F)CC2)cc1 (centres undefined)	> 100000	49	15.5
Cc1ncsc1C(=O)N1CCN(C(c2ccc(C#N)cc2)c2cccnc2)CC1 (centres undefined)	> 100000	> 1000	513
OC(c1ccc(Cl)cc1)(c1cccnc1)c1cnc(OCC2CC2)nc1 (centres undefined)	60400	332	25
N#Cc1ccc(C(c2cccnc2)N2CCC(NC(=O)c3ccno3)CC2)cc1 (centres undefined)	> 100000	671	220
O=C(NC1CCN(C(c2cncnc2)c2ccc(Cl)cc2F)CC1)c1ccc(F)cc1C(F)(F)F (centres undefined)	71400	82.9	11

SMILES	IC50 [1] [nM]	IC90 (Trypanosoma cruzi [2]) [nM]	IC50 (Trypanosoma cruzi [3]) [nM]
CS(=O)(=O)N1CCN(C(c2ccc(C(F)(F)F)cc2)c2cncnc2)CC1 (centres undefined)	> 100000	> 1000	768
Cc1noc(N2CCN(C(c3ccc(C(F)(F)F)cc3)c3cncnc3)CC2)n1 (centres undefined)	> 100000	378	192
N#Cc1ccc(C(c2cccnc2)N2CCC(NC(=O)c3cccc(F)c3F)CC2)cc1 (centres undefined)	> 100000	55.5	17
O=C(c1ccno1)N1CCC(NC(c2ccc(C(F)(F)F)cc2)c2cccnc2)CC1 (centres undefined)	> 100000	270	90
CC(C)(C)NC(=O)N1CCC(NC(c2cccnc2)c2ccc(Cl)cc2F)CC1 (centres undefined)	> 100000	428	79.5
O=C(C1CC1)N1CCN(C(c2cncnc2)c2ccc(C(F)(F)F)cc2F)CC1 (centres undefined)	> 100000	332	178
O=C(NC1CCN(C(c2cncnc2)c2ccc(Cl)cc2F)CC1)c1ccc(F)cc1F (centres undefined)	81000	114	15
O=C(NC1CCN(C(c2cncnc2)c2ccc(Cl)cc2F)CC1)c1c(F)cccc1F (centres undefined)	82300	204	15.5
N#Cc1ccc(C(c2cccnc2)N2CCC(NC(=O)c3ccc(C(F)(F)F)cc3)CC2)cc1 (centres undefined)	65700	76.5	20.5
O=C(c1nccs1)N1CCC(NC(c2ccc(C(F)(F)F)cc2)c2cccnc2)CC1 (centres undefined)	> 100000	455	57
FC(F)(F)c1ccc(C(c2cncnc2)N2CCN(c3nccs3)CC2)cc1 (centres undefined)	68200	266	109
Cc1nc(C(=O)N2CCC(NC(c3ccc(C(F)(F)F)cc3)c3cccnc3)CC2)cs1 (centres undefined)	> 100000	808	326
CC(C)(C)C(=O)N1CCN(C(c2ccc(C#N)cc2)c2cccnc2)CC1 (centres undefined)	> 100000	696	254
Cc1nocc1C(=O)NC1CCN(C(c2ccc(C#N)cc2)c2cccnc2)CC1 (centres undefined)	> 100000	101	55
N#Cc1ccc(C(c2cccnc2)N2CCN(c3nccs3)CC2)cc1 (centres undefined)	> 100000	159	49.5
O=C(NC1CCN(C(c2cncnc2)c2ccc(Cl)cc2F)CC1)c1cccc(F)c1F (centres undefined)	75800	241	29.5
N#Cc1ccc(C(c2cccnc2)N(C(=O)C2CC2)C2CCN(C(=O)C3CC3)CC2)cc1 (centres undefined)	> 100000	> 10000	> 10000
N#Cc1ccc(C(c2cccnc2)N2CCC(NC(=O)c3ccc(C(F)(F)F)cc3F)CC2)cc1 (centres undefined)	76800	696	345
O=C(NC1CCN(C(c2cncnc2)c2ccc(Cl)cc2F)CC1)c1cc(F)ccc1F (centres undefined)	74100	104	22.5
CC(C)OCCCNC(=O)c1cccc(C(O)(c2ccc(Cl)cc2)c2cccnc2)c1 (centres undefined)	74800	232	97.5
Cc1nc(C)c(C(=O)N2CCC(NC(c3ccc(C(F)(F)F)cc3)c3cccnc3)CC2)s1 (centres undefined)	> 100000	658	216
Cc1noc(C)c1C(=O)NC1CCN(C(c2ccc(C#N)cc2)c2cccnc2)CC1 (centres undefined)	> 100000	104	51.5
